Laboratory results: ChEMBL document CHEMBL1201861, “Genomics of Drug Sensitity in Cancer screening data, Wellcome Trust Sanger Institute”

Key:
Assay in all cases: cells
Conditions in all cases: Homo sapiens
MDA-MB-157 = format: functional, cell-based
Description: SANGER: Inhibition of human MDA-MB-157 cell growth in a cell viability assay.

A-375 = format: functional, cell-based;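 note: growth inhibition of A375 cells, read out with a cell viability assay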
Description: SANGER: Inhibition of human A375 cell growth in a cell viability assay.

CAL-39 = format: functional, cell-based;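 note: cell viability assay measuring growth inhibition of CAL-39 cells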
Description: SANGER: Inhibition of human CAL-39 cell growth in a cell viability assay.

BPH-1 = format: functional, cell-based;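 note: cell viability assay measuring growth inhibition of human BPH-1 cells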
Description: SANGER: Inhibition of human BPH-1 cell growth in a cell viability assay.

647-V = format: functional, cell-based;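 note: growth inhibition of 647-V cells, read out with a cell viability assay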
Description: SANGER: Inhibition of human 647-V cell growth in a cell viability assay.

MC-IXC = format: functional, cell-based;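 note: growth inhibition of MC-IXC cells, read out with a cell viability assay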
Description: SANGER: Inhibition of human MC-IXC cell growth in a cell viability assay.

LN-405 = format: functional, cell-based
Description: SANGER: Inhibition of human LN-405 cell growth in a cell viability assay.

LCLC-97TM1 = format: functional, cell-based;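 note: cell viability assay measuring growth inhibition of human LCLC-97TM1 cells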
Description: SANGER: Inhibition of human LCLC-97TM1 cell growth in a cell viability assay.

HEC-1 = format: functional, cell-based;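 note: growth inhibition of the cell line, read out with a cell viability assay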
Description: SANGER: Inhibition of human HEC-1 cell growth in a cell viability assay.

HuP-T3 = format: functional, cell-based;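 note: HuP-T3 cell growth inhibition, read out with a cell viability assay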
Description: SANGER: Inhibition of human HuP-T3 cell growth in a cell viability assay.

MEL-HO = format: functional, cell-based
Description: SANGER: Inhibition of human MEL-HO cell growth in a cell viability assay.

SK-HEP1 = format: functional, cell-based, SK-HEP-1;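 note: cell viability readout used to quantify reduction in proliferation of human SK-HEP-1 cells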
Description: SANGER: Inhibition of human SK-HEP-1 cell growth in a cell viability assay.

OAW-28 = format: functional, cell-based;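 note: growth inhibition of OAW-28 cells, read out with a cell viability assay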
Description: SANGER: Inhibition of human OAW-28 cell growth in a cell viability assay.

CAL-54 = format: functional, cell-based;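 note: growth inhibition of CAL-54 cells, read out by a viability measurement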
Description: SANGER: Inhibition of human CAL-54 cell growth in a cell viability assay.

GCT = format: functional, cell-based;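 note: GCT cell line proliferation inhibition, read out with a cell viability assay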
Description: SANGER: Inhibition of human GCT cell growth in a cell viability assay.

U-118-MG = format: functional, cell-based
Description: SANGER: Inhibition of human U-118-MG cell growth in a cell viability assay.

COLO-678 = format: functional, cell-based
Description: SANGER: Inhibition of human COLO-678 cell growth in a cell viability assay.

MDA-MB-361 = format: functional, cell-based
8505C = format: functional, cell-based
Description: SANGER: Inhibition of human 8505C cell growth in a cell viability assay.

NCI-H2052 = format: functional, cell-based;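 note: growth inhibition of NCI-H2052 cells, read out with a cell viability assay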
Description: SANGER: Inhibition of human NCI-H2052 cell growth in a cell viability assay.

YAPC = format: functional, cell-based;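 note: growth inhibition of YAPC cells, measured with a cell viability assay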
Description: SANGER: Inhibition of human YAPC cell growth in a cell viability assay.

DMS-273 = format: functional, cell-based
Description: SANGER: Inhibition of human DMS-273 cell growth in a cell viability assay.

OVCAR-3 = format: functional, cell-based;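 note: growth inhibition of human OVCAR-3 cells, determined by a cell viability assay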
Description: SANGER: Inhibition of human OVCAR-3 cell growth in a cell viability assay.

DOK = format: functional, cell-based;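 note: cell viability assay read-out, values reflect inhibition of cell growth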
Description: SANGER: Inhibition of human DOK cell growth in a cell viability assay.

NCI-H460 = format: functional, cell-based;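 note: cell viability assay scoring growth inhibition of human NCI-H460 cells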
Description: SANGER: Inhibition of human NCI-H460 cell growth in a cell viability assay.

MCF7 = format: functional, cell-based;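 note: growth inhibition of human MCF7 cells, read out with a cell viability assay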
Description: SANGER: Inhibition of human MCF7 cell growth in a cell viability assay.

SCC-4 = format: functional, cell-based;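 note: growth inhibition of human SCC-4 cells, read out as cell viability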
Description: SANGER: Inhibition of human SCC-4 cell growth in a cell viability assay.

SW626 = format: functional, cell-based;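 note: growth inhibition of SW626 cells, measured with a cell viability assay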
Description: SANGER: Inhibition of human SW626 cell growth in a cell viability assay.

BEN = format: functional, cell-based;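 note: growth inhibition of the BEN cell line, read out with a cell viability assay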
Description: SANGER: Inhibition of human BEN cell growth in a cell viability assay.

ACHN = format: functional, cell-based;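 note: cell viability read-out used to gauge how strongly growth of human ACHN cells is suppressed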
Description: SANGER: Inhibition of human ACHN cell growth in a cell viability assay.

ESS-1 = format: functional, cell-based;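 note: growth inhibition of human ESS-1 cells, read out by a cell viability assay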
Description: SANGER: Inhibition of human ESS-1 cell growth in a cell viability assay.

NCI-H810 = format: functional, cell-based;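 note: IC50 reflects inhibition of cancer cell line growth, read out with a cell viability assay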
Description: SANGER: Inhibition of human NCI-H810 cell growth in a cell viability assay.

HO-1-N-1 = format: functional, cell-based;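 note: growth inhibition of human HO-1-N-1 cells, read out with a cell viability assay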
Description: SANGER: Inhibition of human HO-1-N-1 cell growth in a cell viability assay.

KP-N-YN = format: functional, cell-based;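 note: growth inhibition of KP-N-YN cells, read out with a cell viability assay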
Description: SANGER: Inhibition of human KP-N-YN cell growth in a cell viability assay.

SNU-423 = format: functional, cell-based
Description: SANGER: Inhibition of human SNU-423 cell growth in a cell viability assay.

HT-29 = format: functional, cell-based;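 note: growth inhibition of human HT-29 cells, read out by a cell viability assay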
Description: SANGER: Inhibition of human HT-29 cell growth in a cell viability assay.

MeWo = format: functional, cell-based;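 note: growth inhibition of MeWo cells, determined by a cell viability readout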
Description: SANGER: Inhibition of human Mewo cell growth in a cell viability assay.

NCI-H2228 = format: functional, cell-based;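 note: growth inhibition of human NCI-H2228 cells, read out by a cell viability assay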
Description: SANGER: Inhibition of human NCI-H2228 cell growth in a cell viability assay.

HPAF-II = format: functional, cell-based;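 note: growth inhibition of HPAF-II cells, read out with a cell viability assay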
Description: SANGER: Inhibition of human HPAF-II cell growth in a cell viability assay.

HCC1806 = format: functional, cell-based;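 note: growth inhibition of the cancer cell line, determined with a cell viability assay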
Description: SANGER: Inhibition of human HCC1806 cell growth in a cell viability assay.

S-117 = format: functional, cell-based
Description: SANGER: Inhibition of human S-117 cell growth in a cell viability assay.

HGC-27 = format: functional, cell-based;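 note: growth inhibition of human HGC-27 cells, read out in a cell viability assay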
Description: SANGER: Inhibition of human HGC-27 cell growth in a cell viability assay.

LCLC-103H cell line = format: functional, cell-based
Description: SANGER: Inhibition of human LCLC-103H cell growth in a cell viability assay.

HuO-3N1 = format: functional, cell-based;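 note: cell viability readout used to measure how strongly compounds suppress proliferation of human HuO-3N1 cells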
Description: SANGER: Inhibition of human HuO-3N1 cell growth in a cell viability assay.

NCI-H1563 = format: functional, cell-based;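 note: growth inhibition of human NCI-H1563 cells, read out with a cell viability assay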
Description: SANGER: Inhibition of human NCI-H1563 cell growth in a cell viability assay.

DK-MG = format: functional, cell-based;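 note: growth inhibition of DK-MG cells, read out with a cell viability assay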
Description: SANGER: Inhibition of human DK-MG cell growth in a cell viability assay.

SW48 = format: functional, cell-based;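 note: growth inhibition of SW48 cells, read out with a cell viability assay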
Description: SANGER: Inhibition of human SW48 cell growth in a cell viability assay.

SAS = format: functional, cell-based;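 note: growth inhibition of SAS cells, read out with a cell viability assay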
Description: SANGER: Inhibition of human SAS cell growth in a cell viability assay.

RO82-W-1 = format: functional, cell-based;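 note: growth inhibition of human RO82-W-1 cells, measured with a cell viability assay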
Description: SANGER: Inhibition of human RO82-W-1 cell growth in a cell viability assay.

NCI-H292 = format: functional, cell-based;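 note: growth inhibition of NCI-H292 cells, read out with a cell viability assay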
Description: SANGER: Inhibition of human NCI-H292 cell growth in a cell viability assay.

BT-20 = format: functional, cell-based;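 note: cell viability assay measuring suppression of growth in human BT-20 cells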
Description: SANGER: Inhibition of human BT-20 cell growth in a cell viability assay.

A 172 = format: functional, cell-based;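 note: growth inhibition of A172 cells, measured with a cell viability readout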
Description: SANGER: Inhibition of human A172 cell growth in a cell viability assay.

SW1417 = format: functional, cell-based;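 note: growth inhibition of human SW1417 cells, read out with a cell viability assay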
Description: SANGER: Inhibition of human SW1417 cell growth in a cell viability assay.

Ca9-22 = format: functional, cell-based;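 note: growth inhibition of Ca9-22 cells, read out with a cell viability assay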
Description: SANGER: Inhibition of human Ca9-22 cell growth in a cell viability assay.

786-0 = format: functional, cell-based
Description: SANGER: Inhibition of human 786-0 cell growth in a cell viability assay.

`COc1cc(Nc2c(C#N)cnc3cc(OCCCN4CCN(C)CC4)c(OC)cc23)c(Cl)cc1Cl` [BOSUTINIB] showed an IC50 (MDA-MB-157) of over 2 µM, an IC50 (A-375) of 1.52 µM and an IC50 (CAL-39) of over 2 µM. For the same compound, the IC50 (BPH-1) was 1.45 µM, the IC50 (647-V) was over 2 µM and the IC50 (MC-IXC) was over 2 µM. For the same compound, the IC50 (LN-405) was over 2 µM, the IC50 (LCLC-97TM1) was over 2 µM and the IC50 (HEC-1) was over 2 µM. The IC50 (HuP-T3) was over 2 µM, the IC50 (MEL-HO) was over 2 µM and the IC50 (SK-HEP1) was over 2 µM. It also gave an IC50 (OAW-28) of over 2 µM, an IC50 (CAL-54) of 1.66 µM and an IC50 (GCT) of over 2 µM. It also gave an IC50 (U-118-MG) of over 2 µM, an IC50 (COLO-678) of over 2 µM and an IC50 (MDA-MB-361) of over 2 µM. For the same compound, the IC50 (8505C) was over 2 µM, the IC50 (NCI-H2052) was over 2 µM and the IC50 (YAPC) was over 2 µM. The IC50 (DMS-273) was over 2 µM, the IC50 (OVCAR-3) was over 2 µM and the IC50 (DOK) was 0.378 µM. For the same compound, the IC50 (NCI-H460) was over 2 µM, the IC50 (MCF7) was over 2 µM and the IC50 (SCC-4) was over 2 µM. It also gave an IC50 (SW626) of over 2 µM, an IC50 (BEN) of over 2 µM and an IC50 (ACHN) of 0.541 µM. It also gave an IC50 (ESS-1) of over 2 µM, an IC50 (NCI-H810) of over 2 µM and an IC50 (HO-1-N-1) of 1.26 µM. It also gave an IC50 (KP-N-YN) of over 2 µM, an IC50 (SNU-423) of over 2 µM and an IC50 (HT-29) of over 2 µM. The IC50 (MeWo) was over 2 µM, the IC50 (NCI-H2228) was over 2 µM and the IC50 (HPAF-II) was over 2 µM. The IC50 (HCC1806) was 0.352 µM, the IC50 (S-117) was over 2 µM and the IC50 (HGC-27) was over 2 µM. The IC50 (LCLC-103H cell line) was over 2 µM, the IC50 (HuO-3N1) was over 2 µM and the IC50 (NCI-H1563) was over 2 µM. The IC50 (DK-MG) was over 2 µM, the IC50 (SW48) was over 2 µM and the IC50 (SAS) was over 2 µM. It also gave an IC50 (RO82-W-1) of over 2 µM, an IC50 (NCI-H292) of 0.441 µM and an IC50 (BT-20) of over 2 µM. It also gave an IC50 (A 172) of over 2 µM, an IC50 (SW1417) of over 2 µM and an IC50 (Ca9-22) of 1.56 µM. It also gave an IC50 (786-0) of over 2 µM.

`C[C@]12O[C@H](C[C@]1(O)CO)n1c3ccccc3c3c4c(c5c6ccccc6n2c5c31)CNC4=O` [LESTAURTINIB] was tested, and the IC50 (MDA-MB-157) was 0.276 µM, the IC50 (A-375) was 0.332 µM and the IC50 (CAL-39) was 0.481 µM. The IC50 (BPH-1) was 1.3 µM, the IC50 (647-V) was 1 µM and the IC50 (MC-IXC) was 0.0135 µM. The IC50 (LN-405) was over 2 µM, the IC50 (LCLC-97TM1) was 0.427 µM and the IC50 (HEC-1) was 0.374 µM. It also gave an IC50 (HuP-T3) of 0.966 µM, an IC50 (MEL-HO) of 0.12 µM and an IC50 (SK-HEP1) of 0.0313 µM. For the same compound, the IC50 (OAW-28) was over 2 µM, the IC50 (CAL-54) was 0.178 µM and the IC50 (GCT) was 0.327 µM. It also gave an IC50 (U-118-MG) of over 2 µM, an IC50 (COLO-678) of over 2 µM and an IC50 (MDA-MB-361) of 1.25 µM. The IC50 (8505C) was 0.302 µM, the IC50 (NCI-H2052) was 0.488 µM and the IC50 (YAPC) was over 2 µM. For the same compound, the IC50 (DMS-273) was over 2 µM, the IC50 (OVCAR-3) was over 2 µM and the IC50 (DOK) was 0.297 µM. For the same compound, the IC50 (NCI-H460) was 1.17 µM, the IC50 (MCF7) was over 2 µM and the IC50 (SCC-4) was 1.36 µM. For the same compound, the IC50 (SW626) was 1.13 µM, the IC50 (BEN) was over 2 µM and the IC50 (ACHN) was 0.104 µM. For the same compound, the IC50 (ESS-1) was 0.682 µM, the IC50 (NCI-H810) was 0.995 µM and the IC50 (HO-1-N-1) was 0.298 µM. The IC50 (KP-N-YN) was 1.96 µM, the IC50 (SNU-423) was 0.731 µM and the IC50 (HT-29) was 0.666 µM. For the same compound, the IC50 (MeWo) was 0.718 µM, the IC50 (NCI-H2228) was over 2 µM and the IC50 (HPAF-II) was over 2 µM. The IC50 (HCC1806) was 0.127 µM, the IC50 (S-117) was 1.12 µM and the IC50 (HGC-27) was 0.19 µM. For the same compound, the IC50 (LCLC-103H cell line) was over 2 µM, the IC50 (HuO-3N1) was 0.605 µM and the IC50 (NCI-H1563) was over 2 µM. For the same compound, the IC50 (DK-MG) was 1.1 µM, the IC50 (SW48) was 0.0716 µM and the IC50 (SAS) was 0.958 µM. The IC50 (RO82-W-1) was over 2 µM, the IC50 (NCI-H292) was 0.0914 µM and the IC50 (BT-20) was 1.65 µM. It also gave an IC50 (A 172) of 1.94 µM, an IC50 (SW1417) of 1.17 µM and an IC50 (Ca9-22) of 0.9 µM. The IC50 (786-0) was 1.56 µM.

Work on `C[C@]1(c2nc3c(C(N)=O)cccc3[nH]2)CCCN1` [VELIPARIB] yielded an IC50 (MDA-MB-157) of over 5 µM, an IC50 (A-375) of over 5 µM and an IC50 (CAL-39) of over 5 µM. For the same compound, the IC50 (BPH-1) was over 5 µM, the IC50 (647-V) was over 5 µM and the IC50 (MC-IXC) was over 5 µM. The IC50 (LN-405) was over 5 µM, the IC50 (LCLC-97TM1) was over 5 µM and the IC50 (HEC-1) was over 5 µM. It also gave an IC50 (HuP-T3) of over 5 µM, an IC50 (MEL-HO) of over 5 µM and an IC50 (SK-HEP1) of over 5 µM. It also gave an IC50 (OAW-28) of over 5 µM, an IC50 (CAL-54) of over 5 µM and an IC50 (GCT) of over 5 µM. The IC50 (U-118-MG) was over 5 µM, the IC50 (COLO-678) was over 5 µM and the IC50 (MDA-MB-361) was over 5 µM. For the same compound, the IC50 (8505C) was over 5 µM, the IC50 (NCI-H2052) was over 5 µM and the IC50 (YAPC) was over 5 µM. It also gave an IC50 (DMS-273) of over 5 µM, an IC50 (OVCAR-3) of over 5 µM and an IC50 (DOK) of over 5 µM. The IC50 (NCI-H460) was over 5 µM, the IC50 (MCF7) was over 5 µM and the IC50 (SCC-4) was over 5 µM. The IC50 (SW626) was over 5 µM, the IC50 (BEN) was over 5 µM and the IC50 (ACHN) was over 5 µM. For the same compound, the IC50 (ESS-1) was over 5 µM, the IC50 (NCI-H810) was over 5 µM and the IC50 (HO-1-N-1) was over 5 µM. For the same compound, the IC50 (KP-N-YN) was over 5 µM, the IC50 (SNU-423) was over 5 µM and the IC50 (HT-29) was over 5 µM. For the same compound, the IC50 (MeWo) was over 5 µM, the IC50 (NCI-H2228) was over 5 µM and the IC50 (HPAF-II) was over 5 µM. For the same compound, the IC50 (HCC1806) was over 5 µM, the IC50 (S-117) was over 5 µM and the IC50 (HGC-27) was over 5 µM. The IC50 (LCLC-103H cell line) was over 5 µM, the IC50 (HuO-3N1) was over 5 µM and the IC50 (NCI-H1563) was over 5 µM. The IC50 (DK-MG) was over 5 µM, the IC50 (SW48) was over 5 µM and the IC50 (SAS) was over 5 µM. It also gave an IC50 (RO82-W-1) of over 5 µM, an IC50 (NCI-H292) of over 5 µM and an IC50 (BT-20) of over 5 µM. The IC50 (A 172) was over 5 µM, the IC50 (SW1417) was over 5 µM and the IC50 (Ca9-22) was over 5 µM. It also gave an IC50 (786-0) of over 5 µM.
